The text below walks through data of US8796336B2, “Methoxypolyethylene glycol chelate and uses thereof” (Eastern Virginia Medical School, priority 2006, dated 2014).

Assay [1] concerns retinal ganglion cells (RGC). The assay can be described thus: NMDA retinal damage model, scotopic electroretinogram A and B waves. Type of assay: in vivo, rats. The following applies: for A wave, % Baseline, Intravitreal / B wave, % Baseline, Intravitreal: intravitreal 2 mM co-administered with 2 ul 10 mM NMDA; for A wave, % Baseline, Topical / B wave, % Baseline, Topical: topical 100 mM, 20 μl 3 times per day, 5 days prior and 3 days post-NMDA. The protocol:
Changes in electroretinogram (ERG) A and B waves have been used as indicators of RGC damage. To examine RGC neuroprotection, 2 ul intravitreal injections of 10 mM NMDA, sufficient to change ERG A and B-waves within 2 weeks, were challenged with co-administered intravitreal (2 mM) or topical 100 mM MPDTE, MPSEDE and amifostine in normal rats unilaterally. For topical administration, rats were pretreated for 5 days prior and 3 days post-NMDA administration with the agents at a frequency of 3 times per day with 20 μl agent. Scotopic ERG changes were measured in normal rats. Rats were dark adapted for at least 4 hrs. Eyes were dilated with atropine after which proparacaine and methylcellulose gel were applied topically. Custom made AgCl electrodes (64-1317, Warner Instruments, Hamden, Conn.) were placed on the apex of the cornea. Stimuli consisted of 10-microsec flashes of unattenuated white light generated by Ganzfield bowl photo stimulator (Grass Instruments, PS22, Quincy, Mass.). Data from each eye was recorded separately with a driver amplifier (Grass Instruments, Model 7DAF Polygraph, Quincy, Mass.). Data was acquired digitally via DASYLab (Bedford, N.H.). The contralateral normal eye served as an age matched negative control, e.g. response in a normal, undamaged eye. Differences in amplitude of the A-wave and B-waves between the treated eye and the contralateral eye and between treatment groups were calculated.

In assay [2] the test system is intraocular pressure (IOP). As to the kind of experiment: Topical application for IOP measurements on rat surgical glaucoma (ocular hypertensive) model. In kind it is in vivo, male SpragueDawley rats. The protocol: Ocular hypertension was induced in 9 male SpragueDawley rats, weighing between 400 to 500 grams. Under general anesthesia with acepromazine maleate (12 mg/Kg) and ketamine (80 mg/Kg), IP, and topical proparacaine (0.5%), dissection of the conjunctiva was made with fine cuts. To reduce the stimulus for revascularization or neovascularization, dissection of the right eye was limited to the area immediately surrounding the vortex veins. Three of four vortex veins were exposed and ligated using 9.0 nylon sutures. Criterion for inclusion into the study was an intraocular pressure (IOP) increase of 5 mm Hg or more when compared to […] baseline IOP. Within 6 weeks, the IOP of all the operated eyes increased at least 5 mm Hg compared to baseline. National Institutes of Health Guidelines and Association for Research in Vision and Ophthalmology statement for the Use and Care of Animals were followed in this study.
Prior to initiation of treatment, baseline IOP was obtained in glaucoma rat models. IOP was measured via a specially modified Goldmann applanation tonometer (HAAG-STREIT, Bern, Switzerland) under sedation. Measurements are averages of two consecutive readings and were made at the same time of day and by the same observers.
Rats were treated topically with 20 μl of MP compounds (0.3-100 mM; n=3-6) on the operated eyes. […]

The test system of a further assay is H9C2 cells. As to the kind of experiment: Doxorubicin chemotoxicity on H9C2 cells, intracellular calcium by fluo-3 AM. Type of assay: cell-based, rat. Particulars: 10 min exposure to 50 μM doxorubicin, cells without MPDTE pretreatment. On the procedure: H9C2 cells, which are used as models for rat striated muscle, were cultured using techniques described previously (Lattanzio, F A Jr., Tiangco, D., Osgood, C., Beebe, S., Kerry, J. and Hargrave B Y. Cocaine increases intracellular calcium and reactive oxygen species, depolarizes mitochondria, and activates genes associated with heart failure and remodeling. Cardiovascular Toxiology (20050 5: 377-389). Fluorescent calcium indicator and ROS indicator were used to determine if the reported increase in intracellular calcium and ROS activity occurred and whether these changes were reduced in the presence of 2 mM MPSEDE or MPDTE. Cells were measured using a Zeiss 510 fluorescent confocal microscope as described in Lattanzio et al, 2005.
H9C2 cells, a rat myocyte model, were cultured in MEM until confluent using techniques described in Lattanzio et al, 2005. The cells were treated with 5 μM fluo-3 AM, a fluorescent calcium indicator, for 30 min at 37 C, washed and then exposed to 50 μM doxorubicin (a supermaximal toxic dose), in the presence or absence of 30 min pretreatment with 2 mM MPDTE. Doxorubicin increases intracellular calcium in cardiac cells by disrupting calcium homeostasis through the production of free radical damage and subsequent membrane damage. […] Protection may have occurred due to a combination of free radical scavenging and calcium chelation.
For orientation: Calcium flux is commonly read through the fluorescence of an indicator in the cells.

Regarding “methoxypolyethlene glycol thioester of ethylenediaminetetraacetic acid methyl triester [MPSEDE]”, the “reduction of NMDA damage” value in assay [1] (both intravitreal and topical administration (Table 1)) is listed as “significantly reduced NMDA damage”. For the same compound, the “reduction of NMDA damage” value in assay [1] (co-administration with NMDA, at the dose tested) is given as “trend to reduce NMDA damage, but this was not significant”. In assay [1], the “A wave, % Baseline, Intravitreal” value was 76.2 % Baseline; the “B wave, % Baseline, Intravitreal” value is recorded as 69.6 % Baseline; the “A wave, % Baseline, Topical” value turned out to be 95.9 % Baseline; the “B wave, % Baseline, Topical” value is reported as 93.7 % Baseline. In addition, the IOP reduction result in assay [2] (single topical dose of 10-100 mM, FIG. 5-7) is reported as “significantly reduced IOP”.
`CN[C@H](CC(=O)O)C(=O)O` [NMDA, N-methyl-D-aspartate]: in assay [1], the “A wave, % Baseline, Intravitreal” value worked out at 51.2 % Baseline; the “B wave, % Baseline, Intravitreal” value worked out at 68.4 % Baseline; the “A wave, % Baseline, Topical” value is given as 51.2 % Baseline; the “B wave, % Baseline, Topical” value is reported as 68.4 % Baseline.
On to `NCCCNCCSP(=O)(O)O` [amifostine, S-2-[3-aminopropylamino]ethylphosphorothioate], for which, in assay [1], the “A wave, % Baseline, Intravitreal” value worked out at 94.2 % Baseline; the “B wave, % Baseline, Intravitreal” value came out at 83.3 % Baseline; the “A wave, % Baseline, Topical” value came out at 69.4 % Baseline; the “B wave, % Baseline, Topical” value was 99.3 % Baseline.
Consider `COc1cccc2c1C(=O)c1c(O)c3c(c(O)c1C2=O)C[C@@](O)(C(=O)CO)C[C@@H]3O[C@H]1C[C@H](N)[C@H](O)[C@H](C)O1` [doxorubicin], for which the “increase of intracellular calcium” value in the assay with H9C2 cells is 59.4%.
For the compound “polyethylene glycol monomethyl ether [MP]”, the “IOP reduction of the components” value in assay [2] (MP or DTE administered alone or together, not as great as with MPDTE, FIG. 10) is “reduction in IOP”.
